Results from US7652047B2, “Phenylamino isothiazole carboxamidines as MEK inhibitors” (Ardea Biosciences, Inc., priority 2005, dated 2010).
pEC50, pIC50: −log10 of the molar value.

Key:
[1] = system: phosphorylated ERK in MDA-MB-231 breast cancer cells; experiment: Western blotting for phosphorylated ERK in EGF-stimulated MDA-MB-231 cells; type: cell-based; conditions: Homo sapiens, Table 4, compound 30 min, 100 ng/ml EGF 5 min
Protocol: Effects of compounds in the cell were determined by Western blotting for phosphorylated ERK. MDA-MB-231 breast cancer cells were plated in a 48 well plate at 20,000 cells per well and grown in a 37° humidified CO2 incubator. The following day, the growth media (DMEM+10% fetal bovine serum) was removed and replaced with starve media (DMEM+0.1% fetal bovine serum). Cells were incubated in the starve media for sixteen hours and then treated with a range of compound concentrations for thirty minutes. After incubation with compound, cells were stimulated with 100 ng/ml EGF for five minutes. The cells were then lysed and analyzed by Western blot using a monoclonal antibody raised to phosphorylated ERK. The signal was amplified using a secondary antibody conjugated to a near-IR dye and detected on a Licor Odyssey scanner.

[2] = target: T1, MEK1^CA (human GST-MEK1, constitutively active, Ser218Asp and Ser222Asp) (Homo sapiens, UniProt Q02750, S218D/S222D); experiment: MEK1 enzymatic activity assay (MEK1^CA / ERK2 / MBP, [γ-33P]ATP incorporation); type: biochemical; conditions: Table 4, R' is (CH2)1 or 2-G; read-out: IC50
T1 construct: GST; made in house; host or cells: Escherichia coli
T1 sequence (Q02750 whole entry S218D/S222D): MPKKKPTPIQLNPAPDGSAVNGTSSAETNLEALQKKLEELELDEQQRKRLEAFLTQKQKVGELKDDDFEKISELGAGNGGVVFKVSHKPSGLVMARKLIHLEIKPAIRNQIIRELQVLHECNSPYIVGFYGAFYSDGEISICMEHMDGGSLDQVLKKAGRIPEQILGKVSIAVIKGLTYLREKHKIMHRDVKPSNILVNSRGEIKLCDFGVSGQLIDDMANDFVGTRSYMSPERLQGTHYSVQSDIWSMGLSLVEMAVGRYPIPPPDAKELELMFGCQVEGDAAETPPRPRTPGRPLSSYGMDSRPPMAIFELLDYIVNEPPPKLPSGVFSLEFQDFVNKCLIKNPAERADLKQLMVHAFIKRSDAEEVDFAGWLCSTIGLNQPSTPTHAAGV
Outline: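 Cascade assay: 25 µl reactions with 0.002 nmol E. coli-expressed GST-MEK1 S218D/S222D, 0.02 nmol His-tagged mouse ERK2, 0.25 nmol MBP, 0.25 nmol unlabeled ATP and 0.1 µCi [γ-33P]ATP. Compound preincubated 30 min at ambient temperature with MEK1/ERK2; stopped with TCA, 33P-labelled protein filter-captured and scintillation-counted.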

pIC50 [2]	Structure (SMILES)	pEC50 [1]
	N=C(NCCN1CCNC(=O)C1)c1c(O)nsc1Nc1ccc(Oc2cc(Cl)ccc2Cl)cc1	7.00 to 9.00
7.00 to 9.00	N=C(NCCc1cnc[nH]1)c1c(O)nsc1Nc1ccc(Oc2cc(Cl)ccc2Cl)cc1	7.00 to 9.00
	N=C(NCCN1CCOCC1)c1c(O)nsc1Nc1ccc(Oc2cc(Cl)ccc2Cl)cc1	7.00 to 9.00
6.30 to 7.00	CC1CN(CCNC(=N)c2c(O)nsc2Nc2ccc(Oc3cc(Cl)ccc3Cl)cc2)CC(C)O1 (stereo not shown)	6.30 to 7.00
	CN1CCN(CCNC(=N)c2c(O)nsc2Nc2ccc(Oc3cc(Cl)ccc3Cl)cc2)CC1	6.30 to 7.00
7.00 to 9.00	N=C(NCCN1CCCC1=O)c1c(O)nsc1Nc1ccc(Oc2cc(Cl)ccc2Cl)cc1	6.30 to 7.00
	N=C(NCC1CCCO1)c1c(O)nsc1Nc1ccc(Oc2cc(Cl)ccc2Cl)cc1 (stereo not shown)	7.00 to 9.00
	N=C(NCCN1CCNCC1)c1c(O)nsc1Nc1ccc(Oc2cc(Cl)ccc2Cl)cc1	7.00 to 9.00
6.30 to 7.00	N=C(NCCc1ccccc1)c1c(O)nsc1Nc1ccc(Oc2ccccc2)cc1 [drawing 821]	6.30 to 7.00
